# According to US20200078408A1, “GENE THERAPY” (Ospedale San Raffaele S.r.l., priority 2017, published 2020):
# Columns and labels:
# [1] = system: macrophages, myeloid-derived suppressor cells, CD8+ T cells; assay: tumour microenvironment readouts at sacrifice in the B-ALL model (Example 7); type: in vivo, mouse; settings: combined with gene therapy-based delivery of IFNγ (Tig126/130a)
# [2] = system: B-ALL; assay: B-ALL challenge of mice reconstituted with Tie2-vector transduced HSPCs (Example 7); type: in vivo, mouse; settings: FIG. 31A
# From the text: We employed a transplantable model of B-acute lymphoblastic leukaemia (B-ALL) closely mimicking human Philadelphia-like B-ALL (Nucera, S. et al. (2016) Cancer Cell 29: 905-921), which readily induces a protumoral, immunosuppressive microenvironment characterised, for example, by the appearance of myeloid-derived suppressor cells, downregulation of MHC class II genes and upregulation of IL10 and PD1.
# Eight weeks post transplant, upon reconstitution of the peripheral blood, animals received the B-ALL that is then followed by frequent blood collection. […]
# We then combined the contemporaneous delivery of several immunostimulatory cytokines into the leukaemia microenvironment using the Tie2 vector backbone equipped with different transgene cargo. […] Vector copy number of the single vectors measured by specific quantitative PCR assays was rather low ranging from 0.1 to 0.3 in the reconstituted mice. […]
# Furthermore, we evaluated the potential synergy of our gene therapy-based delivery of IFNy with other immunotherapeutic strategies including checkpoint inhibitors anti-CTLA-4 and anti-LAG-3 and the inhibitor of the IDO enzyme, 1-Methyl-Tryptophan (1-MT). […] Vector copy number of the single vectors measured by specific quantitative PCR assays was 0,72 for the Tig126/130a and 0,84 for the controls in the reconstituted mice. […]
smiles,measurement,setting,value
"Cn1cc(CC(N)C(=O)O)c2ccccc21 (stereo not shown) [1-MT, 1-Methyltryptophan]",MHC class II expression on splenic and bone marrow macrophages,[1]; FIG. 31,significant increase
same,cytotoxic CD8+ T cells in the spleen,[1]; FIG. 31D,increase
same,disease progression,[2]; combined with gene therapy-based delivery of IFNγ (Tig126/130a),reduction of the disease progression
same,B-ALL progression,[2]; monotherapy,no beneficial effect
